Assay results taken from PMC12667485, “Molecular Chain Elongation Mechanism for n‐Caproate Biosynthesis by Megasphaera Hexanoica” (Advanced Science, 2025).

Target: T1, MhTHL (Megasphaera hexanoica, UniProt A0A848BQU5, C88S)
T1 construct: gene HF872_02440; tetramerization motif
Test: X-ray crystal structure, […] Å
Assay type: binding
Settings: crystals soaked in 25 mM hexanoyl-CoA for 5 min, pH 7.5; the bound ligand is deacylated CoA; active site

T1 sequence (A0A848BQU5 entry or part of it C88S): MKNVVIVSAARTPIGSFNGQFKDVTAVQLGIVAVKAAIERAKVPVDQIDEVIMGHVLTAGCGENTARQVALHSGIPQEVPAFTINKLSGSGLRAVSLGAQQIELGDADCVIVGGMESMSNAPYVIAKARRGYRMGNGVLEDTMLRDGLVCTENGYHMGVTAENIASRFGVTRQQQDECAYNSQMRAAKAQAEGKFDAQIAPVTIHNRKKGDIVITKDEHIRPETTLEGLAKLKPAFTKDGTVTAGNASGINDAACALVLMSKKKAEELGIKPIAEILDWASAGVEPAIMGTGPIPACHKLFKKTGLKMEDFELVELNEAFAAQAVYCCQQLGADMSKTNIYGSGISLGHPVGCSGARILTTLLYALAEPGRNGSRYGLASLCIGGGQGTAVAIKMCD

## CC(C)(COP(=O)(O)OP(=O)(O)OC[C@H]1O[C@@H](n2cnc3c(N)ncnc32)[C@H](O)[C@@H]1OP(=O)(O)O)[C@@H](O)C(=O)NCCC(=O)NCCS [CoA]
  X-ray crystal structure, 1.64 Å: a deacylated CoA molecule was bound to MhTHL in the mF observed‐DF calculated electron density map
